Results taken from PMC10700596 (Nature Communications, 2023).

molecular target: T1, EP4R (Homo sapiens, UniProt P35408); assay: biochemical; type: binding; conditions: 10 µM compound vs 10 nM 3H-PGE2
T1 construct: Tango fusion cassette (only 'tango' is printed); expressed in transfected cells; host or cells: HTLA cells (tTA-dependent luciferase reporter, β-arrestin2-TEV fusion)
T1 sequence (P35408 whole entry, the tested form may be a part): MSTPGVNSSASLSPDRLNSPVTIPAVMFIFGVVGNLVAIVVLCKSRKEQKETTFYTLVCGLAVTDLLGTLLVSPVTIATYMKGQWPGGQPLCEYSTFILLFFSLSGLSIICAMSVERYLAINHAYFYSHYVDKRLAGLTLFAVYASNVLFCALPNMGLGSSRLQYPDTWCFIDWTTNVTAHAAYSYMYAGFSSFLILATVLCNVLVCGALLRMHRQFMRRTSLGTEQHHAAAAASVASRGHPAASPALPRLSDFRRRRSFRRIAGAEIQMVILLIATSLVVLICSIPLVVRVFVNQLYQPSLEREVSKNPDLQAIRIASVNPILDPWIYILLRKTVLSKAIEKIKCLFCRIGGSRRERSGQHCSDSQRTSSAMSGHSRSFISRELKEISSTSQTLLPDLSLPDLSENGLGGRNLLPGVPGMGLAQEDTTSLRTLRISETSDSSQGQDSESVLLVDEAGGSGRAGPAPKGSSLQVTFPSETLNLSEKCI

Row | Structure (SMILES) | % displacement of 3HPGE2 at 10 µM [%]
1 | O=C(O)[C@H]1C[C@@H](C(=O)N(Cc2ccsc2)c2ccccc2)C1 [Compound 33, OC(=O)[C@H]1C[C@H](C1)C(=O)N(CC=2C=CSC2)C=3C=CC=CC3] | -8.1

same assay, conditions: […], read-out: % displacement of 3HPGE2 at 10 µM, 10 µM compound vs 10 nM 3H-PGE2

Row | Structure (SMILES) | inhibition at 10 µM [%]
2 | O=C(O)c1ccc(-c2ccc(C=C3CSc4ccc(F)cc4C3=O)o2)cc1O [Compound 56, OC(=O)C=1C=CC(=CC1O)C2=CC=C(C=C3CSC=4C=CC(F)=CC4C3=O)O2] | 7.9
3 | CC(C)(Oc1ccc(F)cc1)C(=O)N1CC(CC(=O)O)c2ccccc21 (stereo not shown) [Compound 60, CC(C)(OC=1C=CC(F)=CC1)C(=O)N2CC(CC(=O)O)C=3C=CC=CC23] | 13.8
4 | CC(c1nc(-c2cccc(C(F)(F)F)c2)no1)S(=O)(=O)c1nnc[nH]1 (stereo not shown) [Compound 50, CC(C1=NC(=NO1)C=2C=CC=C(C2)C(F)(F)F)S(=O)(=O)C3=NN=CN3] | 0.9
5 | CC(NC(=O)C1CC2(CC(C(=O)O)C2)C1)c1ccc(C(F)(F)F)s1 (stereo not shown) [Compound 34, CC(NC(=O)C1CC2(CC(C2)C(=O)O)C1)C3=CC=C(S3)C(F)(F)F] | -6.1
6 | Cc1c(C(=O)N(C)c2nnn[nH]2)cnn1-c1ccc(Cl)cc1 [Compound 69, CN(C(=O)C=1C=NN(C1C)C=2C=CC(Cl)=CC2)C3=NN=NN3] | 37.7
7 | O=C(NCc1ccc(C(F)F)cc1)NC[C@H]1CC[C@H](C(=O)O)CC1 [Compound 41, OC(=O)[C@H]1CC[C@H](CNC(=O)NCC=2C=CC(=CC2)C(F)F)CC1] | -3.4
8 | CC(c1cn(-c2ccccc2)nn1)N1CCN(C(=O)C(=O)O)CC1 (stereo not shown) [Compound 49, CC(N1CCN(CC1)C(=O)C(=O)O)C2=CN(N=N2)C=3C=CC=CC3] | 0.8
9 | O=C(O)CCC(Cc1ccccc1)NS(=O)(=O)C=Cc1ccccc1Cl (stereo not shown) [Compound 55, OC(=O)CCC(CC=1C=CC=CC1)NS(=O)(=O)C=CC=2C=CC=CC2Cl] | 7.6
10 | Cc1cc(C)cc(C2(C(=O)NC(C)c3ncc(C(=O)O)s3)CC2)c1 (stereo not shown) [Compound 54, CC(NC(=O)C1(CC1)C=2C=C(C)C=C(C)C2)C3=NC=C(S3)C(=O)O] | 3.6
11 | CC1CC(C(=O)O)CN(C(=O)C2(c3cccc(C(F)(F)F)c3)CC2)C1 (stereo not shown) [Compound 3, CC1CC(CN(C1)C(=O)C2(CC2)C=3C=CC=C(C3)C(F)(F)F)C(=O)O] | -22.5
12 | Cc1cccc(C2(C(=O)NC3CCSC4(C3)CC(C(=O)O)C4)CC2)c1 (stereo not shown) [Compound 45, CC=1C=CC=C(C1)C2(CC2)C(=O)NC3CCSC4(CC(C4)C(=O)O)C3] | -1.8
13 | Cn1nnnc1NCC(C(=O)OCc1ccccc1)c1ccccc1 (stereo not shown) [Compound 67, CN1N=NN=C1NCC(C(=O)OCC=2C=CC=CC2)C=3C=CC=CC3] | 31.5
14 | O=C(O)Cc1ccc(NC(=O)c2cncc(-c3ccccc3)c2)cc1 [Compound 51, OC(=O)CC=1C=CC(NC(=O)C=2C=NC=C(C2)C=3C=CC=CC3)=CC1] | 1
15 | O=C(Nc1cccc(-n2nn[nH]c2=O)c1)C1(c2ccccn2)CC1 [Compound 32, O=C(NC=1C=CC=C(C1)N2N=NNC2=O)C3(CC3)C=4C=CC=CN4] | -8.5
16 | O=C(O)CCC(Cc1ccccc1)NS(=O)(=O)c1csc2ccccc12 (stereo not shown) [Compound 15, OC(=O)CCC(CC=1C=CC=CC1)NS(=O)(=O)C2=CSC=3C=CC=CC23] | -14.5
17 | CC(CN(Cc1ccccc1)C(=O)COc1ccc(Cl)c2cccnc12)C(=O)O (stereo not shown) [Compound 35, CC(CN(CC=1C=CC=CC1)C(=O)COC=2C=CC(Cl)=C3C=CC=NC23)C(=O)O] | -5.8
18 | CC(CN(C)c1nc(C(F)(F)F)cs1)C(=O)O (stereo not shown) [Compound 9, CC(CN(C)C1=NC(=CS1)C(F)(F)F)C(=O)O] | -18.1
19 | CC(CN(C(=O)c1cc2c(C(F)F)nn(C)c2s1)C1CC1)C(=O)O (stereo not shown) [Compound 24, CC(CN(C1CC1)C(=O)C2=CC=3C(=NN(C)C3S2)C(F)F)C(=O)O] | -10.7
20 | CC(CN(C(=O)c1ccn(-c2ccccc2)n1)C1CC1)C(=O)O (stereo not shown) [Compound 17, CC(CN(C1CC1)C(=O)C=2C=CN(N2)C=3C=CC=CC3)C(=O)O] | -14
21 | O=C(NC1CCCC1C(=O)O)C(Sc1ccc(F)cc1)c1ccccc1 (stereo not shown) [Compound 28, OC(=O)C1CCCC1NC(=O)C(SC=2C=CC(F)=CC2)C=3C=CC=CC3] | -10.3
22 | Cn1nc(-c2ccccc2)cc1CNC(=O)NC1CCC(C(=O)O)CC1 (stereo not shown) [Compound 48, CN1N=C(C=C1CNC(=O)NC2CCC(CC2)C(=O)O)C=3C=CC=CC3] | -0.1
23 | O=C(O)CCC1CCCN(C(=O)c2nn(-c3ccccc3)c3c2CCC3)C1 (stereo not shown) [Compound 61, OC(=O)CCC1CCCN(C1)C(=O)C2=NN(C=3CCCC23)C=4C=CC=CC4] | 15.1
24 | CN(Cc1nccn1C1CC1)c1ncnc2[nH]c(C(=O)O)cc12 [Compound 16, CN(CC1=NC=CN1C2CC2)C=3N=CN=C4NC(=CC34)C(=O)O] | -14.5
25 | COc1ccc(-c2cc(CS(=O)(=O)c3nnc(C)[nH]3)on2)cc1 [Compound 22, COC=1C=CC(=CC1)C=2C=C(CS(=O)(=O)C3=NN=C(C)N3)ON2] | -11.6
26 | COC(C(=O)N(C1CC1)C(C)C(=O)O)c1cnn(C)c1 (stereo not shown) [Compound 25, COC(C(=O)N(C(C)C(=O)O)C1CC1)C=2C=NN(C)C2] | -10.6
27 | CCc1ncc(CN(CC(=O)O)C(=O)OCc2cccnc2)s1 [Compound 2, CCC1=NC=C(CN(CC(=O)O)C(=O)OCC=2C=CC=NC2)S1] | -23.1

Row | Structure (SMILES) | inhibition at 10 µM [%]
28 | CN(C(=O)c1cc(N2CCCC2=O)cc(C(F)(F)F)c1)c1nnn[nH]1 [Compound 44, CN(C(=O)C=1C=C(C=C(C1)C(F)(F)F)N2CCCC2=O)C3=NN=NN3] | -2.6
29 | CN(c1nc2cccc(F)c2s1)[C@H]1C[C@@H](C(=O)O)C1 [Compound 8, CN([C@H]1C[C@H](C1)C(=O)O)C2=NC=3C=CC=C(F)C3S2] | -18.4
30 | CC1(COC(=O)c2ccc(NS(C)(=O)=O)nc2)CC1(F)Cl (stereo not shown) [Compound 7, CC1(COC(=O)C=2C=CC(NS(=O)(=O)C)=NC2)CC1(F)Cl] | -18.4
31 | O=C(O)c1cc(NS(=O)(=O)c2cnc3ccsc3c2)ccc1O [Compound 27, OC(=O)C=1C=C(NS(=O)(=O)C=2C=NC=3C=CSC3C2)C=CC1O] | -10.4
32 | CC(CN(C(=O)CCc1ccc2ccccc2c1)C1CC1)C(=O)O (stereo not shown) [Compound 19, CC(CN(C1CC1)C(=O)CCC=2C=CC=3C=CC=CC3C2)C(=O)O] | -13.2
33 | Cc1cccc2sc(N(C)CC(C)c3nnn[nH]3)nc12 (stereo not shown) [Compound 47, CC(CN(C)C1=NC=2C(C)=CC=CC2S1)C3=NN=NN3] | -1.1
34 | O=C(O)C(NS(=O)(=O)CCc1cccc(Cl)c1)C(O)c1ccccc1 (stereo not shown) [Compound 29, OC(C(NS(=O)(=O)CCC=1C=CC=C(Cl)C1)C(=O)O)C=2C=CC=CC2] | -10.2
35 | Cc1ccc(CN(Cc2ccco2)C(=O)CSc2nnc(S)s2)s1 [Compound 37, CC1=CC=C(CN(CC2=CC=CO2)C(=O)CSC3=NN=C(S)S3)S1] | -5.2
36 | COc1ccc(Cl)cc1C(Nc1ncc(C(=O)O)s1)c1ccccc1 (stereo not shown) [Compound 10, COC=1C=CC(Cl)=CC1C(NC2=NC=C(S2)C(=O)O)C=3C=CC=CC3] | -17.8
37 | CC1(C(=O)O)CC(NS(=O)(=O)c2cc3cc(Cl)ccc3s2)CCO1 (stereo not shown) [Compound 38, CC1(CC(CCO1)NS(=O)(=O)C2=CC=3C=C(Cl)C=CC3S2)C(=O)O] | -5.2
38 | O=C(O)CSc1nc2cc(Cl)ccc2n1Cc1ccccc1 [Compound 39, OC(=O)CSC1=NC=2C=C(Cl)C=CC2N1CC=3C=CC=CC3] | -4.9
39 | O=C(O)C1CC2(CC(NS(=O)(=O)C=Cc3ccc(F)cc3)CCS2)C1 (stereo not shown) [Compound 57, OC(=O)C1CC2(C1)CC(CCS2)NS(=O)(=O)C=CC=3C=CC(F)=CC3] | 9
40 | O=C(O)c1c[nH]c2c(Cl)cc(-c3ccc4ccccc4c3F)cc2c1=O [Compound 12, OC(=O)C1=CNC=2C(Cl)=CC(=CC2C1=O)C=3C=CC=4C=CC=CC4C3F] | -17.1
41 | COc1ccccc1CN(Cc1cccs1)C(=O)Cc1cccc(C(=O)O)c1 [Compound 52, COC=1C=CC=CC1CN(CC2=CC=CS2)C(=O)CC=3C=CC=C(C3)C(=O)O] | 1.2
42 | O=C(O)CCc1cccc(NC(=O)c2c(C(F)(F)F)nc3n2CCCC3)c1 [Compound 5, OC(=O)CCC=1C=CC=C(NC(=O)C2=C(N=C3CCCCN23)C(F)(F)F)C1] | -19
43 | O=C(O)Cc1ccc(C=C2C(=O)N3CCCc4cccc2c43)cc1 [Compound 42, OC(=O)CC=1C=CC(C=C2C(=O)N3CCCC=4C=CC=C2C34)=CC1] | -3.2
44 | CN(C(=O)CSc1nnc(S)s1)c1ccc2ccccc2c1 [Compound 36, CN(C(=O)CSC1=NN=C(S)S1)C=2C=CC=3C=CC=CC3C2] | -5.8
45 | O=C(O)c1cc2c(s1)CCCN(C(=O)C1CC13CCc1ccccc13)C2 (stereo not shown) [Compound 26, OC(=O)C1=CC=2CN(CCCC2S1)C(=O)C3CC43CCC=5C=CC=CC54] | -10.6
46 | Cc1nn(CC(F)(F)F)c(C)c1CC(=O)N(C1CC1)C(C)C(=O)O (stereo not shown) [Compound 43, CC(N(C1CC1)C(=O)CC=2C(C)=NN(CC(F)(F)F)C2C)C(=O)O] | -2.6
47 | O=C(NCc1cc(Cl)cc2c1OCC2)c1cc2sc(C(=O)O)cc2[nH]1 [Compound 13, OC(=O)C1=CC=2NC(=CC2S1)C(=O)NCC=3C=C(Cl)C=C4CCOC43] | -16.5
48 | O=C(O)c1cc(NS(=O)(=O)c2ccc(Br)cc2F)ccc1O [Compound 53, OC(=O)C=1C=C(NS(=O)(=O)C=2C=CC(Br)=CC2F)C=CC1O] | 2.8
49 | NC(=O)c1cc(C(=O)Nc2ccc(CC(=O)O)cc2)nn1-c1ccccc1 [Compound 6, NC(=O)C1=CC(=NN1C=2C=CC=CC2)C(=O)NC=3C=CC(CC(=O)O)=CC3] | -18.8
50 | CC1(C(=O)O)CCN(C(=O)C(O)c2ccc(Cl)c(Br)c2)C1 (stereo not shown) [Compound 14, CC1(CCN(C1)C(=O)C(O)C=2C=CC(Cl)=C(Br)C2)C(=O)O] | -14.7
51 | O=C(O)CCN(Cc1ccccc1)C(=O)CC1(C(F)(F)F)CC1 [Compound 21, OC(=O)CCN(CC=1C=CC=CC1)C(=O)CC2(CC2)C(F)(F)F] | -12.3
52 | O=C(O)c1ccc(C2CCCN2S(=O)(=O)c2ccccc2-c2ccno2)s1 (stereo not shown) [Compound 30, OC(=O)C1=CC=C(S1)C2CCCN2S(=O)(=O)C=3C=CC=CC3C4=CC=NO4] | -10.1
